# Laboratory results published in patent publication US12486278B2, “MASP-2 inhibitors and methods of use” (Omeros Corporation, priority 2019, dated 2025).
# Structures can show the parent of a compound that is named as a salt.
# Target: T1, MASP-2 (CCP1-CCP2-SP) (Homo sapiens, UniProt O00187)
# T1 construct: 15 μL of Enzyme MASP-2 (CCP1-CCP2-SP) in Assay Buffer
# Assay: Enzymatic Assay for MASP-2 (fluorogenic substrate)
# Format: biochemical
# Conditions: fluorogenic substrate based on C2 cleavage site; room temperature, 20 min; 20 mM HEPES pH 7.4, 140 mM NaCl, 0.1% Tween 20
# Protocol: The MASP-2 assay utilizes a fluorogenic substrate, based on the cleavage site for its natural substrate C2. The assay is run at room temperature in an assay buffer containing 20 mM HEPES, pH 7.4, 140 mM NaCl and 0.1% Tween 20. Assay parameters are adjusted such that the assay is linear with respect to time, enzyme, and substrate concentrations. Under these optimized assays conditions, IC50 values are equivalent to Ki values, except in a few cases of “tight binding” inhibitors. Cases of “tight binding” or possible “slow binding” inhibitors are handled by the methods described in Copeland R. A. (2013) Evaluation of Enzyme Inhibitors in Drug Discovery. 2nd Ed., John Wiley and Sons, Inc., Chapters 5-7.
# The MASP-2 assay protocol is carried out as follows. Test compounds are serially diluted in DMSO and then 100 nL of each dilution is transferred to the assay plate(s). 10 μL of Assay Buffer is added, followed by 15 μL of Enzyme MASP-2 (CCP1-CCP2-SP) in Assay Buffer. 15 μL of Substrate in Assay Buffer is then added and mixed to start the reactions. After 20 min at room temperature, 15 μL of a stop solution (0.1 M acetic acid) is added, mixed and the plates are read on a SpectraMax i3x Microplate Reader and exported as Excel files. Each assay plate included a “no inhibitor” (DMSO Only) control, a “no enzyme” control and a reference inhibitor control. % Activity values=100*(average test comp. fluorescence−average “no enzyme” fluorescence)/(average “DMSO only” fluorescence−average “no enzyme” fluorescence). IC50 and Ki values are very reproducible, falling well within ±2-fold.
# T1 sequence (O00187 445-686 limits assumed): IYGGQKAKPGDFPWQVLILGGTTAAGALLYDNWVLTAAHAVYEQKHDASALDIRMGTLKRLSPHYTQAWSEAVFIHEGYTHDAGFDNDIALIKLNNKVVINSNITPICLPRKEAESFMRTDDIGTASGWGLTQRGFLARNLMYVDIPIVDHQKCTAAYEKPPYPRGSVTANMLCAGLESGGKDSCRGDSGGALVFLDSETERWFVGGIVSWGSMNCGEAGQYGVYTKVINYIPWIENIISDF
# T1 sequence (O00187 298-444 partner limits assumed): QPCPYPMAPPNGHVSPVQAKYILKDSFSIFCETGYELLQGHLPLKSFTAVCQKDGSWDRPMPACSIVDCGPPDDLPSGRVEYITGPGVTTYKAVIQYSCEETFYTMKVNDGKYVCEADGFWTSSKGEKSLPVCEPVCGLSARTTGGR
row,Ki,SMILES
1,< 500 nM,"CCN1C[C@@H](Cc2ccc(F)c(Cl)c2)C[C@@H]1C(=O)N[C@@H](C)C(=O)NCc1cnc2[nH]cc(Cl)c2c1 [Compound I-27, (2R,4S)—N—((S)-1-(((3-Chloro-1H-Pyrrolo[2,3-B]Pyridin-5-Yl)Methyl)Amino)-1-Oxopropan-2-Yl)-4-(3-Chloro-4-Fluorobenzyl)-1-Ethylpyrrolidine-2-Carboxamide]"
2,< 500 nM,"C[C@H](NC(=O)[C@H]1C[C@H](c2cccc(CO)c2)CN1)C(=O)NCc1ccc(C(=N)N)cc1 [Compound I-94, (2R,4R)—N—((S)-1-((4-Carbamimidoylbenzyl)Amino)-1-Oxopropan-2-Yl)-4-(3-(Hydroxymethyl)Phenyl)Pyrrolidine-2-Carboxamide Di-Trifluoroacetate]"
3,< 500 nM,"C[C@H](NC(=O)[C@H]1C=C(C2(c3ccccc3)CC2)CN1)C(=O)NCc1ccc(C(=N)N)cc1 [Compound I-52, (R)—N—((S)-1-((4-Carbamimidoylbenzyl)Amino)-1-Oxopropan-2-Yl)-4-(1-Phenylcyclopropyl)-2,5-Dihydro-1H-Pyrrole-2-Carboxamide Di-Trifluoroacetate]"
4,< 500 nM,"Cc1cc(C)n(-c2ccc([C@H]3CCN[C@@H](C(=O)N[C@@H](C)C(=O)NCc4ccc(C(=N)N)cc4)C3)cc2)n1 [Compound I-75, (2R,4S)—N—((S)-1-((4-Carbamimidoylbenzyl)Amino)-1-Oxopropan-2-Yl)-4-(4-(3,5-Dimethyl-1H-Pyrazol-1-Yl)Phenyl)Piperidine-2-Carboxamide Dihydrochloride]"
5,< 500 nM,"Cc1nc(N)ccc1CNC(=O)[C@H](C)NC(=O)[C@H]1C[C@H](Cc2cccc(-c3ccc(F)cc3)c2)CN1 [Compound I-81, (2R,4S)—N—((S)-1-(((6-Amino-2-Methylpyridin-3-Yl)Methyl)Amino)-1-Oxopropan-2-Yl)-4-((4′-Fluoro-[1,1′-Biphenyl]-3-Yl)Methyl)Pyrrolidine-2-Carboxamide Di-Trifluoroacetate]"
6,< 500 nM,"C[C@H](NC(=O)[C@H]1C[C@@H](c2cccc(-c3ccccc3)c2)CCN1)C(=O)NCc1ccc(C(=N)N)cc1 [Compound I-68, (2R,4S)-4-([1,1′-Biphenyl]-3-Yl)-N—((S)-1-((4-Carbamimidoylbenzyl)Amino)-1-Oxopropan-2-Yl)Piperidine-2-Carboxamide Di-Trifluoroacetate]"
7,< 500 nM,"C[C@H](NC(=O)[C@H]1C[C@H](Cc2ccc(F)c(Cl)c2)CN1)C(=O)NCc1ccc(C(=N)N)cc1 [Compound I-23, (2R,4S)—N—((S)-1-((4-Carbamimidoylbenzyl)Amino)-1-Oxopropan-2-Yl)-4-(3-Chloro-4-Fluorobenzyl)Pyrrolidine-2-Carboxamide Di-Trifluoroacetate]"
8,< 500 nM,"Cc1cccc(C2CN[C@@H](C(=O)N[C@@H](C)C(=O)NCc3ccc(C(=N)N)cc3)C2)c1 (single isomer, unassigned) [Compound I-14, N-(1-((4-Carbamimidoylbenzyl)amino)-1-oxopropan-2-yl)-4-(m-tolyl)pyrrolidine-2-carboxamide]"
9,< 500 nM,"C[C@H](NC(=O)[C@H]1C[C@@H](c2ccc(-c3cccnc3)cc2)CCN1)C(=O)NCc1ccc(C(=N)N)cc1 [Compound I-72, (2R,4S)—N—((S)-1-((4-Carbamimidoylbenzyl)Amino)-1-Oxopropan-2-Yl)-4-(4-(Pyridin-3-Yl)Phenyl)Piperidine-2-Carboxamide Di-Trifluoroacetate]"
10,< 500 nM,"COc1cccc([C@@H]2CN[C@@H](C(=O)N[C@@H](C)C(=O)NCc3ccc(C(=N)N)cc3)C2)c1 [Compound I-16, (2R,4R)—N—((S)-1-((4-Carbamimidoylbenzyl)Amino)-1-Oxopropan-2-Yl)-4-(3-Methoxyphenyl)Pyrrolidine-2-Carboxamide Dihydrochloride]"

# Second part, the molecule before the results:
row,SMILES,Ki
1,"Cc1nc(N)ccc1CNC(=O)[C@@H]1COCCN1C(=O)[C@H]1C[C@H](Cc2ccccc2)CN1 [Compound I-12, (S)—N-((6-Amino-2-Methylpyridin-3-Yl)Methyl)-4-((2R,4S)-4-Benzylpyrrolidine-2-Carbonyl)Morpholine-3-Carboxamide Di-Trifluoroacetate]",500 to 2500 nM
2,"Cc1nc(N)ccc1CNC(=O)[C@H](C)NC(=O)[C@H]1C[C@@H](c2ccccc2)CCN1CCNS(C)(=O)=O [Compound I-41, (2R,4S)—N—((S)-1-(((6-Amino-2-Methylpyridin-3-Yl)Methyl)Amino)-1-Oxopropan-2-Yl)-1-(2-(Methylsulfonamido)Ethyl)-4-Phenylpiperidine-2-Carboxamide Di-Trifluoroacetate]",2500 to 10000 nM
3,"Cc1nc(N)ccc1CNC(=O)[C@H](C)NC(=O)[C@H]1C[C@H](Cc2cc(Cl)cs2)CN1 [Compound I-87, (2R,4R)—N—((S)-1-(((6-Amino-2-Methylpyridin-3-Yl)Methyl)Amino)-1-Oxopropan-2-Yl)-4-((4-Chlorothiophen-2-Yl)Methyl)Pyrrolidine-2-Carboxamide Dihydrochloride]",< 500 nM
4,"C[C@H](NC(=O)[C@H]1C[C@H](Cc2cc(Cl)c(Cl)s2)CN1)C(=O)NCc1cnc2c(c1)c(Cl)cn2C [Compound I-20, Trifluoroacetate]",< 500 nM
5,"C[C@H](NC(=O)[C@H]1C[C@@H](c2ccccc2)CCN1)C(=O)NCc1ccc(C(=N)N)s1 [Compound I-91, (2R,4S)—N—((S)-1-(((5-carbamimidoylthiophen-2-yl)methyl)amino)-1-oxopropan-2-yl)-4-phenylpiperidine-2-carboxamide di-trifluoroacetate]",< 500 nM
6,"Cc1nc(N)ccc1CNC(=O)[C@H](C)NC(=O)[C@H]1C[C@H](Cc2cc(Cl)c(Cl)s2)CN1 [Compound I-18, (2R,4R)—N—((S)-1-(((6-Amino-2-Methylpyridin-3-Yl)Methyl)Amino)-1-Oxopropan-2-Yl)-4-((4,5-Dichlorothiophen-2-Yl)Methyl)Pyrrolidine-2-Carboxamide Di-Trifluoroacetate]",< 500 nM
7,"C[C@H](NC(=O)[C@H]1C[C@H](Cc2cc(Br)c(Cl)s2)CN1)C(=O)NCc1cc2cnccc2[nH]1 [Compound I-21, (2R,4R)—N—((S)-1-(((1H-Pyrrolo[3,2-C]Pyridin-2-Yl)Methyl)Amino)-1-Oxopropan-2-Yl)-4-((4-Bromo-5-Chlorothiophen-2-Yl)Methyl)Pyrrolidine-2-Carboxamide Di-Trifluoroacetate]",< 500 nM
8,"C[C@H](NC(=O)[C@H]1C[C@H](c2ccccc2)CN1CC(=O)O)C(=O)NCc1ccc(C(=N)N)cc1 [Compound I-35, 2-((2R,4R)-2-(((S)-1-((4-Carbamimidoylbenzyl)Amino)-1-Oxopropan-2-Yl)Carbamoyl)-4-Phenylpyrrolidin-1-Yl)Acetic Acid Di-Trifluoroacetate]",< 500 nM
9,"O=C(NCc1cc(Cl)ccc1-n1cnnn1)[C@@H]1CCN1C(=O)[C@H]1C[C@@H](c2ccc(-c3ccccc3)cc2)CCN1 [Compound I-103, (S)-1-((2R,4S)-4-([1,1′-Biphenyl]-4-yl)piperidine-2-carbonyl)-N-(5-chloro-2-(1H-tetrazol-1-yl)benzyl)azetidine-2-carboxamide trifluoroacetate]",< 500 nM
10,"C[C@H](NC(=O)[C@H]1C[C@H](Cc2cc(Cl)c(Cl)s2)CN1)C(=O)NCc1cc2cnccc2[nH]1 [Compound I-22, (2R,4R)—N—((S)-1-(((1H-Pyrrolo[3,2-C]Pyridin-2-Yl)Methyl)Amino)-1-Oxopropan-2-Yl)-4-((4,5-Dichlorothiophen-2-Yl)Methyl)Pyrrolidine-2-Carboxamide Di-Trifluoroacetate]",< 500 nM
11,"C[C@H](NC(=O)[C@H]1C[C@H](Cc2ccc(Cl)s2)CN1)C(=O)NCc1cnc2c(c1)c(Cl)cn2C [Compound I-84, (2R,4R)—N—((S)-1-(((3-Chloro-1-Methyl-1H-Pyrrolo[2,3-B]Pyridin-5-Yl)Methyl)Amino)-1-Oxopropan-2-Yl)-4-((5-Chlorothiophen-2-Yl)Methyl)Pyrrolidine-2-Carboxamide Dihydrochloride]",< 500 nM
12,"C[C@H](NC(=O)[C@H]1C[C@@H](c2cccc(-n3cccn3)c2)CCN1)C(=O)NCc1cc2cnccc2[nH]1 [Compound I-80, (2R,4S)-4-(3-(1H-Pyrazol-1-Yl)Phenyl)-N—((S)-1-(((1H-Pyrrolo[3,2-C]Pyridin-2-Yl)Methyl)Amino)-1-Oxopropan-2-Yl)Piperidine-2-Carboxamide Dihydrochloride]",< 500 nM
13,"C[C@H](NC(=O)[C@H]1C[C@H](Oc2ccccc2)CN1)C(=O)NCc1cnc2c(c1)c(Cl)cn2C [Compound I-46, (2R,4S)—N—((S)-1-(((3-Chloro-1-Methyl-1H-Pyrrolo[2,3-B]Pyridin-5-Yl)Methyl)Amino)-1-Oxopropan-2-Yl)-4-Phenoxypyrrolidine-2-Carboxamide Trifluoroacetate]",< 500 nM
14,"C[C@H](NC(=O)[C@H]1C[C@@H](c2ccccc2)CCN1)C(=O)NCc1cc2c(s1)CNC2 [Compound I-98, (2R,4S)—N—((S)-1-(((5,6-Dihydro-4H-Thieno[2,3-C]Pyrrol-2-Yl)Methyl)Amino)-1-Oxopropan-2-Yl)-4-Phenylpiperidine-2-Carboxamide Di-Trifluoroacetate Salt]",< 500 nM
